{
  "source": "patent US11582969B2",
  "about": "“Non-nematicidal composition and use thereof” (BioAtlantis Limited, priority 2013, dated 2023)",
  "key": {"[1]": {"system": "potatoes grown in plots infested with Globodera pallida", "assay": "Field trial 2013: potato yield with isolated bioactives in plots infested with Globodera pallida", "assay_type": "in vivo, Solanum tuberosum", "conditions": "2013, average yield per drill (2.59 m^2)", "from_the_text": "Differences in efficacy achieved with Composition 1 and Composition 2 in field trials between 2008-2012 pointed to a differential effect of bioactive levels within the two compositions (Example 1). Laboratory trials on grass species grown in the presence of Meloidogyne minor identified fucan (fucoidan) as one of the bioactives responsible for enhancing growth (Example 2). Despite lower levels of fucoidan, Composition 1 also achieved equivalent increases in root growth in the same trial as compared with the purified fucoidan. […] A field trial was undertaken in 2013 to further determine which bioactives or combinations of bioactives are responsible for conferring enhancements in total and marketable yield in nematode infested growth media. As in previous trials, the forms of glucan and fucan used were laminarin and fucoidan respectively.\nBioactives were isolated and stock solutions prepared to contain glucan alone, mannitol alone, glucan+mannitol, fucan+mannitol and glucan+fucan. The efficacy of the bioactive fractions were assessed in plots known to be infested with Globodera pallida. Treatments were fully randomized with plots of approximately 16 m^2 in area and 6 drills wide. Twelve tubers were planted per drill. One metre spacing was placed between blocks with two drills fallow between treatments. The dimensions of the drills were 0.7 meters wide and 3.7 meters in length. The cultivar Navan, (Solanum tuberosum L. ev. Navan) was planted and compositions applied by foliar spray at 50% post-emergence and at approximately seven day intervals thereafter. Foliar spray ceased once senescence was noticed. For each of the 5 treatments, a total of 621 g of bioactives was applied per Ha. A nematicidal treatment, Vydate, was applied at full rate as a separate treatment. Standard compound fertilizers and fungicides were applied at recommended rates and intervals. The crop was harvested in November. Total harvest weight and marketable yield (>35 mm category) was measured, with comparisons between bioactive treatments and nematicide made by means of One-Way ANOVA."}, "Creeping bentgrass": {"system": "Creeping bentgrass", "assay": "Pre-soaking seeds: early root growth", "assay_type": "in vivo", "conditions": "seeds pre-soaked 16 hours, 7 day period, n = 10", "method": "(§1) The effects of Composition 1 and fucoidan on Creeping bentgrass and Perennial ryegrass root growth were examined in the laboratory setting in the presence or absence of plant parasitic nematodes in 2010. Seeds were pre-soaked in test materials for 16 hours each and left to germinate on wet USGA sand at 16° C. Roots were analysed using WinRHIZO image analysis system, following a 7 day period to assess mean root length following applications (n=10 seedlings per treatment). Experiments were also undertaken to assess the efficacy of Composition 1 and fucoidan in enhancing root length in the presence or absence of plant pathogenic nematodes. Seedlings (×7 replication) were established in sand columns containing USGA specification sand and sprayed on a weekly basis with either Composition 1 or fucoidan. […] Fucoidan was applied at a rate equivalent to 600 g/Ha. Root knot nematodes of the species Meloidogyne minor were inoculated around the roots in week 1, as second stage juveniles. Roots were analysed using WinRHIZO image analysis system following a 25 days period."}, "Perennial ryegrass": {"system": "Perennial ryegrass", "assay": "Pre-soaking seeds: early root growth", "assay_type": "in vivo", "conditions": "seeds pre-soaked 16 hours, 7 day period", "method": "as §1"}, "[2]": {"system": "Creeping bentgrass, with or without Meloidogyne minor", "assay": "Seedling root length in sand columns with or without Meloidogyne minor", "assay_type": "in vivo", "conditions": "weekly spray, 25 days, n = 7", "method": "as §1"}, "[3]": {"system": "Perennial ryegrass, with or without Meloidogyne minor", "assay": "Seedling root length in sand columns with or without Meloidogyne minor", "assay_type": "in vivo", "conditions": "weekly spray, 25 days, n = 7", "method": "as §1"}, "[4]": {"conditions": "inoculation with Meloidogyne minor"}, "[5]": {"conditions": "no inoculation with Meloidogyne minor"}},
  "note": "Marks after values point to notes of the source that are not given here.",
  "data": [
    {"compound": "OC[C@@H](O)[C@@H](O)[C@H](O)[C@H](O)CO", "note": "[Mannitol-alone, mannitol]", "values": [
      {"measurement": "Total Weight (g)", "setting": "[1]", "value": "9652** g"},
      {"measurement": "Marketable weight (g)", "setting": "[1]; >35 mm", "value": "9324* g"},
      {"measurement": "Marketable weight", "setting": "[1]; >35 mm, listed as mannitol-alone", "value": 9324, "unit": "g"},
      {"measurement": "Total Weight", "setting": "[1]; listed as mannitol-alone", "value": 9652, "unit": "g"}
    ]},
    {"compound": "fucoidan", "values": [
      {"measurement": "Mean Root length (mm)", "setting": "Creeping bentgrass", "value": "39.1 ^a mm"},
      {"measurement": "Mean Root length (mm)", "setting": "Perennial ryegrass; n = 10", "value": "48.9 ^b mm"},
      {"measurement": "Mean Root length (mm)", "setting": "Perennial ryegrass; n = 10, listed as fucoidan", "value": 48.9, "unit": "mm"},
      {"measurement": "mean root length (mm), +Mm", "setting": "[2]; [4]", "value": "20.2^b mm"},
      {"measurement": "mean root length (mm), −Mm", "setting": "[2]; [5]", "value": "27.1^b mm"},
      {"measurement": "mean root length (mm), +Mm", "setting": "[3]; [4]", "value": "102.2^b mm"},
      {"measurement": "mean root length (mm), −Mm", "setting": "[3]; [5]", "value": "129.2^c mm"}
    ]},
    {"compound": "laminarin [Glucan-alone]", "values": [
      {"measurement": "Total Weight", "setting": "[1]", "value": 10524, "unit": "g"},
      {"measurement": "Marketable weight", "setting": "[1]; >35 mm", "value": 10218, "unit": "g"}
    ]}
  ]
}
